We go through 1 compound from US20250065017A1, “Fractionating Extracellular Matrix to Modulate Bioactivity and the Host Response” (University of Pittsburgh - Of the Commonwealth System of …, priority 2014, published 2025).

The subject of this assay is Sprague Dawley rats. The experiment in a line: Rat skeletal muscle injury model: macrophage phenotype immunolabeling. The format is in vivo. The procedure: An established rodent skeletal muscle injury model was used to evaluate the effect of the COX1/2 inhibitor, Aspirin, on the ECM scaffold mediated constructive remodeling response. Briefly, three days prior to the surgical procedure, animals were randomly assigned to either the Aspirin treated (3 mg/mL Aspirin in drinking water) or control (vehicle) group. Bilateral 1.5 cm×1.5 cm partial thickness defects were created in the abdominal musculature. A size-matched pre-cast UBM hydrogel and an overlying 2×2 cm single layer sheet of UBM was then placed in the muscle defect area. The remodeling response was evaluated following 3, 7, 14, and 35 days by quantitative histomorphologic metrics (Wolf M T, Carruthers […], Crapo P M, Huber A, Burnsed O A, Londono R, Johnson […] and others. Polypropylene surgical mesh coated with extracellular matrix mitigates the host foreign body response. J Biomed Mater Res A 2013 and Wolf […], Brennan-Pierce E P, Johnson S A, Carruthers […] hydrogel derived from decellularized dermal extracellular matrix. Biomaterials 2012;33(29):7028-38), including characterization of macrophage phenotype and neo tissue deposition. Thirty-two female Sprague Dawley rats (350-400 g at implantation) were purchased from Harlan Laboratories. Rats were housed on a 12 hour light-dark cycle and fed standard laboratory chow and water ad libitum. Animals were randomly assigned to either the Aspirin treated or control (vehicle) group. Three days prior to surgery, animals in the Aspirin group had their drinking water supplemented with 3 mg/mL Aspirin which was continued throughout the experimental time course. […] Salicylates in whole blood were determined using the Salicylates Detection Kit from Neogen according to the manufacturer's instructions. […] CD206 and CD86: Cellular expression of markers of macrophage polarization (CD206 and CD86) were determined by immunolabeling using previously described methods ([…], Londono […], Carruthers […]. Preparation and characterization of a biologic scaffold from esophageal mucosa. Biomaterials 2013;34(28):6729-37). […]

The mark [1] stands for this setting: vs non-Aspirin treated animals throughout the time course.

As for `CC(=O)Oc1ccccc1C(=O)O` [Aspirin], for the setting “main effect for treatment, UBM implant”, the “M2:M1 ratio (CD68+CD206+ to CD68+CD86+ cells)” value is on record as “reduction in the M2:M1 ratio”. In addition, under setting [1], the “M1 (CD86+) macrophages” value is listed as “increase in M1 (CD86+) macrophages” and the “M2 (CD206+) macrophages” value is recorded as “reduction in M2 (CD206+)”.
